The source of these data is ChEMBL document CHEMBL4011594, “Discovery and optimization of 2-pyridinone aminal integrase strand transfer inhibitors for the treatment of HIV” (Bioorg Med Chem Lett, 2017).

In general, solubility refers to the concentration that dissolves in the medium under given conditions. Higher therefore signals a readily soluble substance.

Structures are written as SMILES. Values after ≈ are worked out from the molar mass of the structure shown. Bounds are passed on as bounds.

Data set [1] has as its system Human immunodeficiency virus 1. The data set can be described thus: Inhibition of HIV-1 integrase strand transfer activity assessed as reduction in viral replication in presence of 50% normal human serum.
The subject of data set [2] is Human immunodeficiency virus 1. The data set can be described thus: Inhibition of wild-type HIV-1 integrase strand transfer activity assessed as reduction in viral replication in presence of 10% normal human serum.
Data set [3] in a line: Aqueous solubility of the compound at pH 7. In kind it is physicochemical.
Data set [4] is described as follows: Aqueous solubility of the compound at pH 2. In kind it is physicochemical.

Take `CN1C(=O)c2c3c(c(O)c(=O)n2C12CCC2)C(=O)N(Cc1ccc(F)c(Cl)c1)CC3`: the IP in data set [1] was determined as 900 nM; in data set [2], 210 nM. Besides, the solubility in data set [3] and in data set [4] was under 5 µM each time.
As to `COCC(O)CN1C(=O)c2c3c(c(O)c(=O)n2C12CCC1CC12)C(=O)N(Cc1ccc(F)c(Cl)c1)CC3` (stereo not drawn), the IP in data set [1] turned out to be 130 nM; in data set [2], 16 nM. The solubility turned out to be 123 µM (≈ 65.4 µg/mL) in data set [3] and 157 µM (≈ 83.5 µg/mL) in data set [4].
With `Cc1ccc2c(c1)C1(CC2)NC(=O)c2c3c(c(O)c(=O)n21)C(=O)N(Cc1ccc(F)c(Cl)c1)CC3` (racemic), the results for the IP in data set [1] and in data set [2] were 230 nM and 45 nM, respectively. Moreover, the solubility in data set [3] and in data set [4] was under 2 µM in each case.
`CO[C@H](C)CN1C(=O)c2c3c(c(O)c(=O)n2C12CCC1CC12)C(=O)N(Cc1ccc(F)c(Cl)c1)CC3` (stereo partly drawn): the IP in data set [1] was 180 nM; in data set [2], 25 nM. The values for the solubility in data set [3] and in data set [4] were 26 µM (≈ 13.4 µg/mL) and 46 µM (≈ 23.7 µg/mL), respectively.
Take `CN1CCN(CCN2C(=O)c3c4c(c(O)c(=O)n3C23CCC2CC23)C(=O)N(Cc2ccc(F)c(Cl)c2)CC4)S1(=O)=O` (stereo not drawn): the IP stood at 65 nM in data set [1] and 13 nM in data set [2]. In addition, the solubility in data set [3] was 12 µM (≈ 7.27 µg/mL); in data set [4], 18 µM (≈ 10.9 µg/mL).
On to `CO[C@@H](C)CN1C(=O)c2c3c(c(O)c(=O)n2C12CCC1CC12)C(=O)N(Cc1ccc(F)c(Cl)c1)CC3` (stereo partly drawn), for which the IP amounted to 210 nM in data set [1] and 28 nM in data set [2]. Moreover, the solubility in data set [3] turned out to be 23 µM (≈ 11.9 µg/mL); in data set [4] it was 12 µM (≈ 6.19 µg/mL).
Take `Cc1ccc2c(c1)CCC21NC(=O)c2c3c(c(O)c(=O)n21)C(=O)N(Cc1ccc(F)c(Cl)c1)CC3` (racemic): the IP in data set [1] is 240 nM; in data set [2], 59 nM. Besides, the solubility in data set [3] and in data set [4] was under 3 µM throughout.
`COc1cccc2c1[C@]1(CC2)NC(=O)c2c3c(c(O)c(=O)n21)C(=O)N(Cc1ccc(F)c(Cl)c1)CC3`: the IP in data set [1] stood at 22 nM; in data set [2], 4 nM. Besides, the solubility in data set [3] was 5 µM (≈ 2.55 µg/mL); in data set [4], under 2 µM.
For `O=C1NC2(Cc3ccccc3C2)n2c1c1c(c(O)c2=O)C(=O)N(Cc2ccc(F)c(Cl)c2)CC1`, the IP in data set [1] is 1800 nM; in data set [2], 620 nM. The solubility in data set [3] and in data set [4] was under 3 µM throughout.
As to `CN1C(=O)c2c3c(c(O)c(=O)n2C12CCCCCC2)C(=O)N(Cc1ccc(F)c(Cl)c1)CC3`, the IP in data set [1] is 4800 nM; in data set [2], 1100 nM. Further, the solubility in data set [3] and in data set [4] was under 5 µM each time.
With `O=C1NC(C2CCC2)n2c1c1c(c(O)c2=O)C(=O)N(Cc2ccc(F)c(Cl)c2)CC1` (racemic), the IP in data set [1] was over 10000 nM; in data set [2] it was 8340 nM. Besides, the solubility was 31 µM (≈ 13.4 µg/mL) in data set [3] and 40 µM (≈ 17.3 µg/mL) in data set [4].
As for `O=C1N[C@@]2(CC[C@@H]3C[C@@H]32)n2c1c1c(c(O)c2=O)C(=O)N(Cc2ccc(F)c(Cl)c2)CC1`, the figures for the IP in data set [1] and in data set [2] were 88 nM and 16 nM, respectively. The solubility stood at 32 µM (≈ 14.2 µg/mL) in data set [3] and 49 µM (≈ 21.7 µg/mL) in data set [4].
`O=C1c2c(c3n(c(=O)c2O)C2(CCC4CC42)N(CC2CCOCC2)C3=O)CCN1Cc1ccc(F)c(Cl)c1` (racemic): the results for the IP in data set [1] and in data set [2] were 240 nM and 31 nM, respectively. The solubility in data set [3] stood at 14 µM (≈ 7.59 µg/mL); in data set [4], 44 µM (≈ 23.8 µg/mL).
As for `CN(CCN1C(=O)c2c3c(c(O)c(=O)n2C12CCC1CC12)C(=O)N(Cc1ccc(F)c(Cl)c1)CC3)S(C)(=O)=O` (stereo not drawn), the IP in data set [1] worked out at 150 nM; in data set [2], 19 nM. Also, the solubility stood at 17 µM (≈ 9.84 µg/mL) in data set [3] and 33 µM (≈ 19.1 µg/mL) in data set [4].
Taken in the same sequence, the figures for `O=C1NC2(CCCC2)n2c1c1c(c(O)c2=O)C(=O)N(Cc2ccc(F)c(Cl)c2)CC1` were 1600 nM, 100 nM, 10 µM (≈ 4.32 µg/mL) and under 5 µM.
`O=C(CN1C(=O)c2c3c(c(O)c(=O)n2C12CCC1CC12)C(=O)N(Cc1ccc(F)c(Cl)c1)CC3)N1CCOCC1` (stereo not drawn): the IP came to 120 nM in data set [1] and 18 nM in data set [2]. The solubility in data set [3] stood at 67 µM (≈ 38.3 µg/mL); in data set [4], 151 µM (≈ 86.2 µg/mL).
Take `O=C1CC[C@@H](CN2C(=O)c3c4c(c(O)c(=O)n3C23CCC2CC23)C(=O)N(Cc2ccc(F)c(Cl)c2)CC4)N1` (stereo partly drawn): the IP worked out at 130 nM in data set [1] and 40 nM in data set [2].
Regarding `O=C1c2c(c3n(c(=O)c2O)C2(CCC4CC42)N(CCN2CCCS2(=O)=O)C3=O)CCN1Cc1ccc(F)c(Cl)c1` (stereo not drawn), the figures for the IP in data set [1] and in data set [2] were 170 nM and 17 nM, respectively. Moreover, the solubility in data set [3] is under 4 µM; in data set [4], 11 µM (≈ 6.5 µg/mL).
In the case of `CN1CC(=O)N(CCN2C(=O)c3c4c(c(O)c(=O)n3C23CCC2CC23)C(=O)N(Cc2ccc(F)c(Cl)c2)CC4)C1=O` (stereo not drawn), the IP in data set [1] turned out to be 42 nM; in data set [2], 8 nM. In addition, the solubility in data set [3] was 56 µM (≈ 32.7 µg/mL); in data set [4] it was 136 µM (≈ 79.4 µg/mL).
As for `O=C1NC2(CCc3ccccc32)n2c1c1c(c(O)c2=O)C(=O)N(Cc2ccc(F)c(Cl)c2)CC1` (racemic), the IP in data set [1] worked out at 190 nM; in data set [2], 27 nM. In addition, the solubility in data set [3] and in data set [4] was under 2 µM in each case.
In the case of `CC1CCC2(C1)NC(=O)c1c3c(c(O)c(=O)n12)C(=O)N(Cc1ccc(F)c(Cl)c1)CC3` (racemic), the IP in data set [1] amounted to 700 nM; in data set [2] it was 110 nM. Further, the solubility in data set [3] and in data set [4] was under 5 µM each time.
On to `N#Cc1cccc2c1[C@@]1(CC2)NC(=O)c2c3c(c(O)c(=O)n21)C(=O)N(Cc1ccc(F)c(Cl)c1)CC3`, for which the IP in data set [1] turned out to be 4110 nM; in data set [2] it was 1300 nM. Moreover, the figures for the solubility in data set [3] and in data set [4] were 17 µM (≈ 8.58 µg/mL) and 10 µM (≈ 5.05 µg/mL), respectively.
`COC(C)(C)CCN1C(=O)c2c3c(c(O)c(=O)n2C12CCC1CC12)C(=O)N(Cc1ccc(F)c(Cl)c1)CC3` (stereo not drawn): the IP in data set [1] stood at 410 nM; in data set [2] it was 45 nM. Besides, the solubility in data set [3] and in data set [4] was under 6 µM in each case.
`COc1ccnc2c1C1(CC2)NC(=O)c2c3c(c(O)c(=O)n21)C(=O)N(Cc1ccc(F)c(Cl)c1)CC3` (racemic): the IP in data set [1] was found to be 74 nM; in data set [2] it was 13 nM. In addition, the solubility came out at 63 µM (≈ 32.2 µg/mL) in data set [3] and 190 µM (≈ 97.1 µg/mL) in data set [4].
On to `O=C1c2c(c3n(c(=O)c2O)C2(CCC4CC42)N(CCO)C3=O)CCN1Cc1ccc(F)c(Cl)c1` (stereo not drawn), for which the IP in data set [1] came out at 274 nM; in data set [2], 48 nM. The solubility stood at 107 µM (≈ 52.2 µg/mL) in data set [3] and 138 µM (≈ 67.3 µg/mL) in data set [4].
For the compound `C[C@@H](O)CN1C(=O)c2c3c(c(O)c(=O)n2[C@@]12CC[C@H]1C[C@H]12)C(=O)N(Cc1ccc(F)c(Cl)c1)CC3`, the IP came out at 33 nM in data set [1] and 7 nM in data set [2]. The solubility was 63 µM (≈ 31.6 µg/mL) in data set [3] and 190 µM (≈ 95.4 µg/mL) in data set [4].
Consider `O=C1c2c(c3n(c(=O)c2O)C2(CCC4CC42)N(CCN2C(=O)c4ccccc4C2=O)C3=O)CCN1Cc1ccc(F)c(Cl)c1` (stereo not drawn), for which the IP in data set [1] stood at 890 nM; in data set [2], 80 nM. For the same compound, the solubility in data set [3] and in data set [4] was under 2 µM throughout.
With `COCCN1C(=O)c2c3c(c(O)c(=O)n2C12CCC1CC12)C(=O)N(Cc1ccc(F)c(Cl)c1)CC3` (stereo not drawn), the IP in data set [1] worked out at 197 nM; in data set [2], 33 nM. Besides, the figures for the solubility in data set [3] and in data set [4] were 59 µM (≈ 29.6 µg/mL) and 54 µM (≈ 27.1 µg/mL), respectively.
In the case of `O=C1NC(C2CCCC2)n2c1c1c(c(O)c2=O)C(=O)N(Cc2ccc(F)c(Cl)c2)CC1` (racemic), the IP in data set [1] is over 1000 nM; in data set [2], over 10000 nM. The solubility in data set [3] is under 5 µM; in data set [4] it was 116 µM (≈ 51.7 µg/mL).
Taken in the same sequence, the figures for `CCC(O)CN1C(=O)c2c3c(c(O)c(=O)n2C12CCC1CC12)C(=O)N(Cc1ccc(F)c(Cl)c1)CC3` (stereo not drawn) were 120 nM, 15 nM, 54 µM (≈ 27.9 µg/mL) and 69 µM (≈ 35.6 µg/mL).
Taken in the same sequence, the figures for `Cc1cccc2c1C1(CC2)NC(=O)c2c3c(c(O)c(=O)n21)C(=O)N(Cc1ccc(F)c(Cl)c1)CC3` (racemic) were 140 nM, 37 nM, under 2 µM and under 2 µM.
On to `COc1nccc2c1C1(CC2)NC(=O)c2c3c(c(O)c(=O)n21)C(=O)N(Cc1ccc(F)c(Cl)c1)CC3` (racemic), for which the IP in data set [1] came to 1940 nM; in data set [2] it was 493 nM.
Regarding `Cc1cccc2c1CCC21NC(=O)c2c3c(c(O)c(=O)n21)C(=O)N(Cc1ccc(F)c(Cl)c1)CC3` (racemic), the IP was determined as 540 nM in data set [1] and 140 nM in data set [2]. The solubility in data set [3] and in data set [4] was under 2 µM throughout.
